In patent US5358951A, “Angiotensin II receptor blocking 2, 3, 6 substituted quinazolinones” (American Cyanamid Company, priority 1993, dated 1994):
Structures can show the parent of a compound that is named as a salt.

Test system: vasopressor response of angiotensin II
Experiment: AII Challenge: antagonism of angiotensin II vasopressor response
Assay type: in vivo
Conditions: for inhibition in vivo at 0.5 mg/kg: 0.5 mg/kg i.v.; for inhibition in vivo at 0.3 mg/kg: 0.3 mg/kg i.v.
How it was run: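 Percent antagonism is based on the systolic blood pressure rise (mmHg) to i.v. angiotensin II at 0.05 and 0.1 ug/kg. Each rat's own predose response was taken as 100%. Challenges were repeated from 30 to 300 min after i.v., i.p. or oral compound in cannulated conscious male SHR, 16-20 weeks old.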

[1] = 1 mg/kg P.O., AII 0.05 mcg/kg IV, 30 min post dose, sodium salt
[2] = 1 mg/kg P.O., AII 0.05 mcg/kg IV, 90 min post dose, sodium salt
[3] = 1 mg/kg P.O., AII 0.05 mcg/kg IV, 180 min post dose, sodium salt
[4] = 1 mg/kg P.O., AII 0.05 mcg/kg IV, 240 min post dose, sodium salt
[5] = 1 mg/kg P.O., AII 0.1 mcg/kg IV, 30 min post dose, sodium salt
[6] = 1 mg/kg P.O., AII 0.1 mcg/kg IV, 240 min post dose, sodium salt
[7] = Rattus norvegicus, iv, […], AII 0.1 mcg/kg IV, 90 min post dose

`CCCCc1nc2ccc([C@@]3(C)C[C@@H]4CCCN4O3)cc2c(=O)n1Cc1ccc(-c2ccccc2-c2nnn[nH]2)cc1` (relative stereo) [Example 73, Cis-2-Butyl-6-(hexahydro-2-methylpyrrolo[1,2-b]isoxazol-2-yl)-3-[[2'-(1H-(tetrazol-5-yl)[1,1'-biphenyl-4-yl]methyl]-4(3H)-quinazolinone sodium salt] was tested, and the “% Inhibition” value [1] was 31%, the “Response Average Change” value [1] was 22.5 mmHg and the “Response Average Change” value (1 mg/kg P.O., AII 0.05 mcg/kg IV, 60 min post dose, sodium salt) was 12.5 mmHg. The “% Inhibition” value [2] was 38%, the “Response Average Change” value [2] was 20 mmHg and the “Response Average Change” value (1 mg/kg P.O., AII 0.05 mcg/kg IV, 120 min post dose, sodium salt) was 12.5 mmHg. For the same compound, the “% Inhibition” value [3] was 23%, the “Response Average Change” value [3] was 25 mmHg and the “% Inhibition” value [4] was 15%. For the same compound, the “Response Average Change” value [4] was 27.5 mmHg, the “Response Average Change” value (1 mg/kg P.O., AII 0.05 mcg/kg IV, 300 min post dose) was 25 mmHg and the “% Inhibition” value [5] was 27%. The “Response Average Change” value [5] was 27.5 mmHg, the “Response Average Change” value (1 mg/kg P.O., AII 0.1 mcg/kg IV, 60 min post dose, sodium salt) was 20 mmHg and the “Response Average Change” value (1 mg/kg P.O., AII 0.1 mcg/kg IV, 90 min post dose, sodium salt) was 22.5 mmHg. For the same compound, the “Response Average Change” value (1 mg/kg P.O., AII 0.1 mcg/kg IV, 120 min post dose) was 22.5 mmHg, the “Response Average Change” value (1 mg/kg P.O., AII 0.1 mcg/kg IV, 180 min post dose, sodium salt) was 22.5 mmHg and the “% Inhibition” value [6] was 33%. For the same compound, the “Response Average Change” value [6] was 25 mmHg, the “Response Average Change” value (1 mg/kg P.O., AII 0.1 mcg/kg IV, 300 min post dose) was 22.5 mmHg and the “% Inhibition” value (1 mg/kg i.v., AII 0.05 mcg/kg IV, 60 min post dose) was 83%. For the same compound, the inhibition in vivo at 0.5 mg/kg (Rattus norvegicus, iv, 0.5 h, AII 0.05 mcg/kg IV, 30 min post dose) was 73%, the inhibition in vivo at 0.5 mg/kg (Rattus norvegicus, iv, 0.5 h, AII 0.1 mcg/kg IV, 30 min post dose) was 67% and the inhibition in vivo at 1 mg/kg (Rattus norvegicus, iv, 0.5 h, 1 mg/kg i.v., AII 0.05 mcg/kg IV, 30 min post dose) was 83%. For the same compound, the inhibition in vivo at 1 mg/kg (Rattus norvegicus, iv, 0.5 h, 1 mg/kg i.v., AII 0.1 mcg/kg IV, 30 min post dose) was 74%, the inhibition in vivo at 0.1 mg/kg (Rattus norvegicus, iv, 1 h, 0.1 mg/kg i.v., AII 0.05 mcg/kg IV, 60 min post dose) was 40% and the inhibition in vivo at 0.3 mg/kg (Rattus norvegicus, iv, 1 h, AII 0.1 mcg/kg IV, 60 min post dose) was 25%. The inhibition in vivo at 0.5 mg/kg (Rattus norvegicus, iv, 1 h, AII 0.05 mcg/kg IV, 60 min post dose) was 71%, the inhibition in vivo at 1 mg/kg (Rattus norvegicus, iv, 1 h, 1 mg/kg i.v., AII 0.05 mcg/kg IV, 60 min post dose) was 83% and the inhibition in vivo at 1 mg/kg (Rattus norvegicus, iv, 1 h, 1 mg/kg i.v., AII 0.1 mcg/kg IV, 60 min post dose) was 65%. For the same compound, the inhibition in vivo at 0.3 mg/kg (Rattus norvegicus, iv, 2 h, AII 0.05 mcg/kg IV, 120 min post dose) was 41%, the inhibition in vivo at 0.3 mg/kg (Rattus norvegicus, iv, 2 h, AII 0.1 mcg/kg IV, 120 min post dose) was 38% and the inhibition in vivo at 1 mg/kg (Rattus norvegicus, iv, 2 h, 1 mg/kg i.v., AII 0.05 mcg/kg IV, 120 min post dose) was 83%. The inhibition in vivo at 1 mg/kg (Rattus norvegicus, iv, 2 h, 1 mg/kg i.v., AII 0.1 mcg/kg IV, 120 min post dose) was 86%, the inhibition in vivo at 0.3 mg/kg (Rattus norvegicus, iv, 3 h, AII 0.05 mcg/kg IV, 180 min post dose) was 36% and the inhibition in vivo at 1 mg/kg (Rattus norvegicus, iv, 3 h, 1 mg/kg i.v., AII 0.05 mcg/kg IV, 180 min post dose) was 72%. For the same compound, the inhibition in vivo at 1 mg/kg (Rattus norvegicus, iv, 3 h, 1 mg/kg i.v., AII 0.1 mcg/kg IV, 180 min post dose) was 42%, the inhibition in vivo at 0.3 mg/kg (Rattus norvegicus, iv, 4 h, AII 0.05 mcg/kg IV, 240 min post dose) was 23% and the inhibition in vivo at 0.5 mg/kg (Rattus norvegicus, iv, 4 h, AII 0.1 mcg/kg IV, 240 min post dose) was 39%. For the same compound, the inhibition in vivo at 1 mg/kg (Rattus norvegicus, iv, 4 h, 1 mg/kg i.v., AII 0.1 mcg/kg IV, 240 min post dose) was 74%, the inhibition in vivo at 1 mg/kg (Rattus norvegicus, iv, 5 h, 1 mg/kg i.v., AII 0.05 mcg/kg IV, 300 min post dose) was 50% and the inhibition in vivo at 1 mg/kg (Rattus norvegicus, iv, 5 h, 1 mg/kg i.v., AII 0.1 mcg/kg IV, 300 min post dose) was 60%. For the same compound, the inhibition in vivo at 0.3 mg/kg (Rattus norvegicus, iv, […], AII 0.05 mcg/kg IV, 90 min post dose) was 48%, the inhibition in vivo at 0.3 mg/kg [7] was 29% and the inhibition in vivo at 0.5 mg/kg [7] was 50%. It also gave an inhibition in vivo at 1 mg/kg (Rattus norvegicus, iv, […], 1 mg/kg i.v., AII 0.05 mcg/kg IV, 90 min post dose) of 83%, an inhibition in vivo at 1 mg/kg (Rattus norvegicus, iv, […], 1 mg/kg i.v., AII 0.1 mcg/kg IV, 90 min post dose) of 79% and an inhibition in vivo at 1 mg/kg (Rattus norvegicus, po, 1 h, 1 mg/kg P.O., AII 0.05 mcg/kg IV, 60 min post dose) of 62%. The inhibition in vivo at 1 mg/kg (Rattus norvegicus, po, 1 h, 1 mg/kg P.O., AII 0.1 mcg/kg IV, 60 min post dose) was 47%, the inhibition in vivo at 1 mg/kg (Rattus norvegicus, po, 2 h, 1 mg/kg P.O., AII 0.05 mcg/kg IV, 120 min post dose) was 62% and the inhibition in vivo at 1 mg/kg (Rattus norvegicus, po, 2 h, 1 mg/kg P.O., AII 0.1 mcg/kg IV, 120 min post dose) was 40%. The inhibition in vivo at 1 mg/kg (Rattus norvegicus, po, 3 h, 1 mg/kg P.O., AII 0.1 mcg/kg IV, 180 min post dose) was 40%, the inhibition in vivo at 1 mg/kg (Rattus norvegicus, po, 5 h, 1 mg/kg P.O., AII 0.05 mcg/kg IV, 300 min post dose) was 23% and the inhibition in vivo at 1 mg/kg (Rattus norvegicus, po, 5 h, 1 mg/kg P.O., AII 0.1 mcg/kg IV, 300 min post dose) was 40%. The inhibition in vivo at 1 mg/kg (Rattus norvegicus, po, […], 1 mg/kg P.O., AII 0.1 mcg/kg IV, 90 min post dose) was 40%.
